Values of other authors in patent US8101779B2, “Enantioselective synthesis of (+) and (–)-2-[1-(2,6-dichlorophenoxy)-ethyl]-1,3-diazacyclopent-2-ene” (University of Kentucky Research Foundation, priority 2008, dated 2012).

SMILES	dose at which the effect of lowering mean arterial blood pressure is apparent (effect apparent at doses as low as) [µg/kg]	dose at which lowering of mean arterial blood pressure is not seen (effect not seen even at doses as high as) [µg/kg]
CC(Oc1c(Cl)cccc1Cl)C1=NCCN1 (single isomer, unassigned; (+)) [(+)-lofexidine, (+) 2-[1-(2,6-dichlorophenoxy)-ethyl]1,3-diazacyclopent-2-ene]	≤ 0.561	
CC(Oc1c(Cl)cccc1Cl)C1=NCCN1 (single isomer, unassigned; (-)) [(−)-lofexidine, (−)-2-[1-(2,6-dichlorophenoxy)-ethyl]-1,3-diazacyclopent-2-ene]		> 10
